From US20030083313A1, “Means of tumor therapy” (priority 1998, published 2003)

Key:
breast cancer 3366/Tam = experiment: Therapeutic effectivity on tamoxifen-resistant breast cancer xenograft, tumor growth as T/C; assay type: in vivo; conditions: 3366/Tam tumor on female NMRI nude mice; dose Tam/Lipid mg/kg/injection as per group (50/0, 50/25, 0/25), twice a day for 4 weeks
Experimental: (§1) Tam liposomes according to Example 4 are used for the in vivo treatment test. As a tumor model, breast cancer 3366/Tam is transplanted onto female NMRI nude mice and the treatment started when the tumor is palpable. The animals are given one dose of liposomes with 50 mg/kg Tam (and correspondingly 25 mg/kg OPP) twice a day for 4 weeks. As controls, liposomes containing no Tam are administered, in addition one group being treated with free Tam. The tumor growth in relation to the control group (physiological salt solution) is determined and portrayed as a percentage T/C, as shown in FIG. 1 and in Table 1. […] The living cells were determined with the MTT assay.

[1] = Alteration of body weight in the in vivo treatment test; conditions: 3366/Tam-bearing female NMRI nude mice, dose Tam/Lipid mg/kg/injection as per group, twice a day for 4 weeks
Experimental: as §1

Alteration of body weight % (day 29/51) [1]: −5%
Compound: CC/C(=C(\c1ccccc1)c1ccc(OCCN(C)C)cc1)c1ccccc1 [tamoxifen]
T/C (tumor growth in relation to the control group, physiological salt solution) (breast cancer 3366/Tam): 91%
